This is an account of results in ChEMBL document CHEMBL1144842, “Design and campaign synthesis of piperidine- and thiazole-based histone deacetylase inhibitors” (Bioorg Med Chem Lett, 2008).

pIC50: −log10 of the molar value. Active and inactive are the calls of the source.

One data set has as its system HCT-116. The data set can be described thus: Antiproliferative activity against human HCT116 cells after 72 hrs by MTS assay. The settings on record: HCT-116, 72 h. It is filed as functional, cell-based. For orientation: Tetrazolium assays rely on reduction of a dye to a coloured formazan, in cell work by metabolically active cells.
The nature of data set [1]: Solubility of the compound at pH 7.4. The settings on record: buffer.
The target of a further data set is Histone deacetylase 1 (Homo sapiens, UniProt Q13547). As to the kind of experiment: Inhibition of human recombinant HDAC1 expressed in Hi5 cells. Also noted: species or system BTI-TN-5B1-4.
Sequence of Histone deacetylase 1 (Q13547 whole entry): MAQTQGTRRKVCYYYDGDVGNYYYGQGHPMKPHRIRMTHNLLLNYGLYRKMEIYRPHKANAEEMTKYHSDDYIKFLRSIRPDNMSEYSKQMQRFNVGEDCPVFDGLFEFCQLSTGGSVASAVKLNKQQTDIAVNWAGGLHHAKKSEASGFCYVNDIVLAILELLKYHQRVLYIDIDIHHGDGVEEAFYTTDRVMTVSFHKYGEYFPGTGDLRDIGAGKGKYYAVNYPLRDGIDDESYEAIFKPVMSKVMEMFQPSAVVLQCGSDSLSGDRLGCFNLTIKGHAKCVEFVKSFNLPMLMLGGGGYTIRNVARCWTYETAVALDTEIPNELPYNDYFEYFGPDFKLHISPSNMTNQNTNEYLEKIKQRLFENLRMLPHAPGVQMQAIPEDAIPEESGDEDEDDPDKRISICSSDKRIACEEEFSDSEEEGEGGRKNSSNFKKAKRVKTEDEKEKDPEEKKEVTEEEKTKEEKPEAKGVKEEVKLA
A further data set concerns the target Cytochrome P450 2C9 (Homo sapiens, UniProt P11712).
Another data set addresses Cytochrome P450 2D6 (Homo sapiens, UniProt P10635).
The target in a further data set is Cytochrome P450 2C19 (Homo sapiens, UniProt P33261).
Sequence of Cytochrome P450 2C19 (P33261 whole entry): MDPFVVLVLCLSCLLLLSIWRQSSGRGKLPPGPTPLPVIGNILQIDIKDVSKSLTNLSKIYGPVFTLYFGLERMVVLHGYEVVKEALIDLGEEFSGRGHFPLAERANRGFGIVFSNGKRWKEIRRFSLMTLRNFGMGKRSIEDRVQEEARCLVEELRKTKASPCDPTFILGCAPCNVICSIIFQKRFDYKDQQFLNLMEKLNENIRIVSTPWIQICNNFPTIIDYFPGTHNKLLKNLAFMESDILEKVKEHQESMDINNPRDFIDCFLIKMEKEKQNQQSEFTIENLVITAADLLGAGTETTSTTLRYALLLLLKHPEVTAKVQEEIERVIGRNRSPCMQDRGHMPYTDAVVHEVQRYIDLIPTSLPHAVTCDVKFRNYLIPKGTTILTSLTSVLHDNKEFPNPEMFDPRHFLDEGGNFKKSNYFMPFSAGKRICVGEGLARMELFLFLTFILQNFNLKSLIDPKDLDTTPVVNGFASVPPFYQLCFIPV
For another data set, the target named is Cytochrome P450 3A4 (Homo sapiens, UniProt P08684).
Sequence of Cytochrome P450 3A4 (P08684 whole entry): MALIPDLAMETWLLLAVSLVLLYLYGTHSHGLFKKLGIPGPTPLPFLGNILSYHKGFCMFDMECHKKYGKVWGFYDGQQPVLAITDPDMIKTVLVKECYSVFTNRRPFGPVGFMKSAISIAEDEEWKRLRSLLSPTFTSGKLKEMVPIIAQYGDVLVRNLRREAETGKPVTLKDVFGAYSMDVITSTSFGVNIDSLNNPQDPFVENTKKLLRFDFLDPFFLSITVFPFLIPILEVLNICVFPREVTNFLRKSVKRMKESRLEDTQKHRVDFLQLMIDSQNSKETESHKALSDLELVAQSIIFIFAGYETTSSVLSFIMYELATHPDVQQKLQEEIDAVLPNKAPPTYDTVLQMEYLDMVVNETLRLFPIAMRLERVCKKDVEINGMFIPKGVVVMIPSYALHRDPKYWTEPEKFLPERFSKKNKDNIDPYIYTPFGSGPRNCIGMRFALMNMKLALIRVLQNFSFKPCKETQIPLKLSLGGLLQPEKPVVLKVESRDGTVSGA
Data set [2] can be described thus: Lipophilicity, log D of the compound. The settings on record: octanol/water.
The nature of data set [3]: Half life in mouse at 70.9 umol/kg, po. It is filed as ADME, organism-based. The settings on record: in vivo.
Data set [4] can be described thus: Unbound ligand in Han Wistar rat plasma at 70.9 umol.kg, po. It is filed as ADME, organism-based.
Data set [5] can be described thus: Half life in Han Wistar rat at 5 umol/kg, iv. It is filed as ADME, organism-based. The conditions noted are these: in vivo.
Data set [6] can be described thus: Half life in Han Wistar rat at 70.9 umol/kg, po. It is filed as ADME, organism-based. The settings on record: in vivo.
A short description of data set [7]: Clearance in Han Wistar rat at 5 umol/kg, iv. It is filed as ADME, organism-based. The settings on record: in vivo.
Data set [8] can be described thus: Volume of distribution in steady state in Han Wistar rat at 5 umol/kg, iv. It is filed as ADME, organism-based. The conditions noted are these: in vivo, read-out: Vdss.
The target of another data set is Histone deacetylase. As to the kind of experiment: Inhibition of human HDAC in HeLa cells. It is filed as cell-based.
The nature of data set [9]: Half life in Han Wistar rat at 2.5 umol/kg, iv. It is filed as ADME, organism-based. The settings on record: in vivo.
For another data set, the system named is Homo sapiens. The data set can be described thus: Antitumor activity against human A549a xenografted mouse at 12.5 mg/kg, po for 18 days. It is filed as functional, organism-based. Details: dose 12.5 mg/kg. (A xenograft is tissue or cells of one species grown in another, often human tumour cells in immunodeficient mice.)
A short description of data set [10]: Clearance in mouse at 5 umol/kg, iv. It is filed as ADME, organism-based. The conditions noted are these: in vivo.
The nature of data set [11]: Half life in mouse at 54.8 umol/kg, po. It is filed as ADME, organism-based. The settings on record: in vivo.
A short description of data set [12]: Half life in mouse at 5 umol/kg, iv. It is filed as ADME, organism-based. The conditions noted are these: in vivo.
Data set [13] is described as follows: Unbound ligand in Beagle dog plasma at 3 umol/kg, po. It is filed as ADME, organism-based, Canis lupus familiaris. The settings on record: at 3 µmol/kg.
Data set [14] can be described thus: Volume of distribution in steady state in Han Wistar rat at 2.5 umol/kg, iv. It is filed as ADME, organism-based. The conditions noted are these: in vivo, read-out: Vdss.
The nature of data set [15]: Unbound ligand in Han Wistar rat plasma at 54.8 umol/kg, po. It is filed as ADME, organism-based. The settings on record: at 54.8 µmol/kg.
The nature of data set [16]: Volume of distribution in steady state in mouse at 5 umol/kg, iv. It is filed as ADME, organism-based. The conditions noted are these: in vivo, read-out: Vdss.
Data set [17] in a line: Volume of distribution in steady state in Beagle dog at 0.8 umol/kg, iv. It is filed as ADME, organism-based, Canis lupus familiaris. The settings on record: in vivo, read-out: Vdss.
Data set [18] in a line: Clearance in Beagle dog at 0.8 umol/kg, iv. It is filed as ADME, organism-based, Canis lupus familiaris. The conditions noted are these: in vivo.
A short description of data set [19]: Half life in Beagle dog at 0.8 umol/kg, iv. It is filed as ADME, organism-based, Canis lupus familiaris. The conditions noted are these: in vivo.
Data set [20] is described as follows: Half life in Han Wistar rat at 54.8 umol/kg, po. It is filed as ADME, organism-based. The settings on record: in vivo.
Data set [21] in a line: Clearance in Han Wistar rat at 2.5 umol/kg, iv. It is filed as ADME, organism-based. The conditions noted are these: in vivo.
Data set [22] can be described thus: Half life in Beagle dog at 3 umol/kg, po. The conditions noted are these: in vivo. It is filed as ADME, organism-based, Canis lupus familiaris.
The nature of data set [23]: Unbound ligand in Han Wistar rat plasma at 10 umol/kg, po. It is filed as ADME, organism-based.
Data set [24] is described as follows: Half life in Han Wistar rat at 10 umol/kg, po. It is filed as ADME, organism-based. The conditions noted are these: in vivo.
Data set [25] in a line: Unbound ligand in mouse plasma at 54.8 umol/kg, po. It is filed as ADME, organism-based.

Sequence of Cytochrome P450 2C9 (P11712 whole entry): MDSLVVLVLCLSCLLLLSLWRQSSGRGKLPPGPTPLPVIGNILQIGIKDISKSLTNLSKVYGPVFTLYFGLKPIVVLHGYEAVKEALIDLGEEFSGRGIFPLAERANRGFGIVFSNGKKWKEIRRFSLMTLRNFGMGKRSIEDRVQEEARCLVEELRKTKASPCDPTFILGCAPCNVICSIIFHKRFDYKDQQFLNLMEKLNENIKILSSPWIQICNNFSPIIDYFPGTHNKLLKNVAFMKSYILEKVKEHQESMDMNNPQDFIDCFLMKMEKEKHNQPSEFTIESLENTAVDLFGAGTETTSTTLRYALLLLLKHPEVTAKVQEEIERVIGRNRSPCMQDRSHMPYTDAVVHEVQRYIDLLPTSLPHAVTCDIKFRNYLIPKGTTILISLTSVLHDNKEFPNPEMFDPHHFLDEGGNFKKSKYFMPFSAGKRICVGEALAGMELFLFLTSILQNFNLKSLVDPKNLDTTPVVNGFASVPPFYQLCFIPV
Sequence of Cytochrome P450 2D6 (P10635 whole entry): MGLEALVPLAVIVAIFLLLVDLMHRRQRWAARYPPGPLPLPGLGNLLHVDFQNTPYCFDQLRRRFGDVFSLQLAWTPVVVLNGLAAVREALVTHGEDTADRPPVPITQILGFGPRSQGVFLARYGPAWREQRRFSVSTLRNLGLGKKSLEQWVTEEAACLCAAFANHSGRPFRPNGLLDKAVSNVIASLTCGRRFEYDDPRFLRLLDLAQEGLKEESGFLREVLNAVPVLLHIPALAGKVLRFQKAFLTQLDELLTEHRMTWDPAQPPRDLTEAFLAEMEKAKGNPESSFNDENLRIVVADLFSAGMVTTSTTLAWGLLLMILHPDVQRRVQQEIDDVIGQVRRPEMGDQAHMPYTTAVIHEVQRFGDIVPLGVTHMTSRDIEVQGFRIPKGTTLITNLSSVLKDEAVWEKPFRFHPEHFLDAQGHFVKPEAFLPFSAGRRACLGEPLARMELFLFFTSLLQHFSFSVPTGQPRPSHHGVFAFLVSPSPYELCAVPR

Usually pIC50 stands for the IC50 on a negative log10 scale, so that one unit is a factor of ten. One may read the solubility as the dissolved amount per volume that the medium holds. Read a high solubility as a readily soluble substance. `CCCNCc1cnc(-c2ccc(C(=O)Nc3ccccc3N)cc2)s1`: the pIC50 was 6.73 in the data set on HCT-116 and 7.56 on Histone deacetylase 1. Moreover, the solubility in [1] is more than 500 µM.
As a reminder, the logD is the decadic logarithm of the distribution of all forms, ionised or not, between an organic phase and buffer at a given pH. For the compound `CNC(=O)c1ccc(CN2CCC(c3ccc(C(=O)Nc4ccccc4N)cc3)CC2)cc1`, the pIC50 at Cytochrome P450 2C9 is less than 5.00; with HCT-116, 6.36; on Cytochrome P450 2D6 it was less than 5.00; against Cytochrome P450 2C19 it was less than 5.00; against Cytochrome P450 3A4, less than 5.00; at Histone deacetylase 1 it was 7.51. The same compound showed a logD in [2] of 1.99.
Broadly, the half-life is the time needed for the level to fall by half in the phase considered. A lower half-life goes with fast loss. By fraction unbound is commonly meant the share of the substance not bound to proteins or other matrix. Low readings indicate extensive binding, high ones weak binding. In general, clearance refers to the rate of elimination divided by the concentration. Consider `CCNCc1cnc(-c2ccc(C(=O)Nc3ccccc3N)cc2)s1`, for which the half-life in data set [3] is 1.1 h; in data set [5], 5.2 h; in data set [6] it was 2.1 h. For the same compound, the results for the pIC50 in the data set with HCT-116 and on Histone deacetylase 1 were 6.69 and 7.42, respectively. In data set [4], this compound showed an unbound share (fraction unbound) of 0.54. In [1], this compound showed a solubility of more than 500 µM. The same compound returned a clearance in [7] of 38 mL/min/kg. Besides, in data set [8], the Vd came out at 7.3 L/kg.
Compound `Nc1ccccc1NC(=O)c1ccc(N2CCOCC2)cc1` gave a pIC50 in the data set with HCT-116 of 5.13. On Histone deacetylase, the “Log IC50” value is given as -4.78. In [2], this compound yielded a logD of 1.2.
For the compound `CCNC(=O)c1ccc(CN2CCC(c3ccc(C(=O)Nc4ccccc4N)cc3)CC2)cc1`, the half-life in data set [9] was 1.7 h; in data set [11], 3.2 h; in data set [12] it was 4.8 h; in data set [19] it was 10.2 h; in [20], 3.7 h; in data set [22], 7.2 h. For the same compound, the pIC50 in the data set with HCT-116 is 6.44; on Histone deacetylase 1, 7.46. Further, the outcome in the data set on Homo sapiens was Active. The clearance in [10] turned out to be 36 mL/min/kg; in data set [18] it was 7 mL/min/kg; in data set [21], 16 mL/min/kg. Further, the fraction unbound was 0.33 in data set [13] and 0.21 in data set [15]. The Vd in data set [14] is 3.5 L/kg; in data set [16] it was 5 L/kg; in [17] it was 4.2 L/kg.
With `Nc1ccccc1NC(=O)c1ccc(-c2ncc(CN3CCCCC3)s2)cc1`, the pIC50 in the data set with HCT-116 was 6.84; at Histone deacetylase 1, 7.66.
For `CN1CCC(c2ccc(C(=O)Nc3ccccc3N)cc2)CC1`, the negative-log IC50 (pIC50) is 6.08 in the data set on HCT-116 and 6.86 at Histone deacetylase 1. In addition, at Histone deacetylase, the “Log IC50” value is reported as -5.23. This compound also showed a logD in data set [2] of less than 0.5.
Regarding `CN(C)C(=O)c1ccc(CN2CCC(c3ccc(C(=O)Nc4ccccc4N)cc3)CC2)cc1`, the pIC50 against Cytochrome P450 2C9 was less than 5.00; in the data set with HCT-116 it was 6.32; at Cytochrome P450 2D6, less than 5.00; on Cytochrome P450 2C19, less than 5.00; against Cytochrome P450 3A4, less than 5.00; at Histone deacetylase 1, 7.07. Also, the fraction unbound in data set [23] was 0.28; in data set [25] it was 0.4. Moreover, the half-life is 3.8 h in [11], 1.6 h in data set [5] and 2.1 h in data set [24]. Moreover, the pH-dependent lipophilicity (logD) in [2] was found to be 1.53. Also, the clearance in data set [7] is 49 mL/min/kg. The Vd in data set [8] was found to be 3.1 L/kg.
`Nc1ccccc1NC(=O)c1ccc(-c2nccs2)cc1` gave a negative logarithm of the IC50 (pIC50) with HCT-116 of 5.74.
Consider `Nc1ccccc1NC(=O)c1ccc(C2CCN(Cc3ccccc3)CC2)cc1`, for which the figures for the pIC50 in the data set with HCT-116 and on Histone deacetylase 1 were 6.36 and 7.35, respectively. Also, at Histone deacetylase, the “Log IC50” value is -4.57.
In the data set on HCT-116, `Nc1ccccc1NC(=O)c1ccc(N2CCN(Cc3ccccc3)CC2)cc1` had a pIC50 of 5.63. For the same compound, the “Log IC50” value at Histone deacetylase was -4.44.
`Nc1ccccc1NC(=O)c1ccc(C2CCN(Cc3ccc(C(=O)NC4CC4)cc3)CC2)cc1`: the negative-log IC50 (pIC50) against Cytochrome P450 2C9 is less than 5.00; in the data set on HCT-116 it was 6.38; against Cytochrome P450 2D6, less than 5.00; on Cytochrome P450 2C19, less than 5.00; at Cytochrome P450 3A4 it was less than 5.00; on Histone deacetylase 1 it was 7.24. In data set [2], this compound returned a logD of 2.31.
As for `Nc1ccccc1NC(=O)c1ccc(C2CCN(CCC(=O)Nc3ccccc3F)CC2)cc1`, the pIC50 against Cytochrome P450 2C9 was 5.00; in the data set with HCT-116 it was 6.52; against Cytochrome P450 2D6, 5.00; against Cytochrome P450 2C19, 5.00; at Cytochrome P450 3A4, 5.00; at Histone deacetylase 1, 7.17. The compound further registered a logD in [2] of 2.76.
